Experimental data as given in patent publication US7928098B2, “Therapeutic and/or preventive agents for a sleep disorder” (Kyowa Hakko Kirin Co., Ltd., priority 2005, dated 2011).

Row | melting point | SMILES
1 | 188 to 204 °C | O=C(CN1CCC2(CC1)OCCO2)Nc1nc(-c2ccco2)c(C(=O)c2ccccn2)s1 [Compound 177, 2-(1,4-Dioxa-8-azaspiro[4.5]decan-8-yl)-N-[4-(2-furyl)-5-(pyridin-2-ylcarbonyl)thiazol-2-yl]acetamide]
2 | 238 to 240 °C | CN(C)c1ccc(C(=O)Nc2nc(-c3ccco3)c(C(=O)C3CCOCC3)s2)cc1 [Compound 370, 4-(Dimethylamino)-N-[4-(2-furyl)-5-(tetrahydropyran-4-ylcarbonyl)thiazol-2-yl]benzamide]
3 | 240 to 241 °C | O=C(c1ccccn1)c1sc(NC(=O)C2CCN(Cc3ccncc3)CC2)nc1-c1ccco1 [Compound 106, N-[4-(2-Furyl)-5-(pyridin-2-ylcarbonyl)thiazol-2-yl]-1-(pyridin-4-ylmethyl)piperidine-4-carboxamide]
4 | 114 to 117 °C | COCCN(C)c1cc(C(=O)Nc2nc(-c3ccco3)c(C(=O)c3ccccn3)s2)ccn1 [Compound 125, N-[4-(2-Furyl)-5-(pyridin-2-ylcarbonyl)thiazol-2-yl]-2-[N-(2-methoxyethyl)-N-methylamino]pyridine-4-carboxamide]
5 | 183 to 184 °C | O=C(CN1CCC(N2CCCC2)CC1)Nc1nc(-c2ccco2)c(C(=O)C2CCOCC2)s1 [Compound 456, N-[4-(2-Furyl)-5-(tetrahydropyran-4-ylcarbonyl)thiazol-2-yl]-2-[4-(1-pyrrolidinyl)piperidino]acetamide]
6 | 150 to 154 °C | COc1ccccc1C(=O)Nc1nc(-c2ccco2)c(C(=O)C2CC2)s1 [Compound 326, N-[5-(Cyclopropylcarbonyl)-4-(2-furyl)thiazol-2-yl]-2-methoxybenzamide]
7 | 187 to 188 °C | Cc1cc(C(=O)Nc2nc(-c3ccco3)c(C(=O)c3ccccn3)s2)ccn1 [Compound 120, N-[4-(2-Furyl)-5-(pyridin-2-ylcarbonyl)thiazol-2-yl]-2-methylpyridine-4-carboxamide]
8 | 186 to 187 °C | CC(C)(C)C(=O)Nc1nc(-c2ccco2)c(C(=O)c2ccccn2)s1 [Compound 98, N-[4-(2-Furyl)-5-(pyridin-2-ylcarbonyl)thiazol-2-yl]-2,2-dimethylpropanamide]
9 | 245 to 248 °C | O=C(Nc1nc(-c2ccco2)c(C(=O)c2cccnc2)s1)c1ccncc1 [Compound 211, N-[4-(2-Furyl)-5-(pyridin-3-ylcarbonyl)thiazol-2-yl]pyridine-4-carboxamide]
10 | 168 to 170 °C | O=C(CNC12CC3CC(CC(C3)C1)C2)Nc1nc(-c2ccco2)c(C(=O)C2CCOCC2)s1 [Compound 482, N-[4-(2-Furyl)-5-(tetrahydropyran-4-ylcarbonyl)thiazol-2-yl]-2-(adamantan-1-ylamino)acetamide]
11 | 153 to 155 °C | O=C(CN1CCSC1)Nc1nc(-c2ccco2)c(C(=O)c2ccccn2)s1 [Compound 189, N-[4-(2-Furyl)-5-(pyridin-2-ylcarbonyl)thiazol-2-yl]-2-(1,3-thiazolidin-3-yl)acetamide]
12 | 106 to 112 °C | CN1CCN(CC(=O)Nc2nc(-c3ccco3)c(C(=O)C3CCOCC3)s2)CC1 [Compound 467, N-[4-(2-Furyl)-5-(tetrahydropyran-4-ylcarbonyl)thiazol-2-yl]-2-(4-methylpiperazin-1-yl)acetamide]
13 | 230 to 231 °C | Cn1nnc2ccc(C(=O)Nc3nc(-c4ccco4)c(C(=O)c4ccccn4)s3)cc21 [Compound 153, N-[4-(2-Furyl)-5-(pyridin-2-ylcarbonyl)thiazol-2-yl]-1-methyl-1H-benzotriazole-6-carboxamide]
14 | 234 to 235 °C | O=C(Nc1nc(-c2ccco2)c(C(=O)c2ccccn2)s1)c1cnc2occc2c1 [Compound 156, N-[4-(2-Furyl)-5-(pyridin-2-ylcarbonyl)thiazol-2-yl]-furo[2,3-b]pyridine-5-carboxamide]
15 | 288 to 291 °C | O=C(Nc1nc(-c2ccco2)c(C(=O)c2ccn(Cc3ccccc3)c(=O)c2)s1)c1ccncc1 [Compound 278, N-[5-(1-Benzyl-2-oxo-1,2-dihydropyridin-4-ylcarbonyl)-4-(2-furyl)thiazol-2-yl]pyridine-4-carboxamide]
16 | 209 to 212 °C | Cc1ccc(C(=O)Nc2nc(-c3ccco3)c(C(=O)C3CCOCC3)s2)o1 [Compound 417, N-[4-(2-Furyl)-5-(tetrahydropyran-4-ylcarbonyl)thiazol-2-yl]-5-methylfuran-2-carboxamide]
17 | 106 to 108 °C | CC(C)(O)CN1CCN(CC(=O)Nc2nc(-c3ccco3)c(C(=O)C3CCOCC3)s2)CC1 [Compound 470, N-[4-(2-Furyl)-5-(tetrahydropyran-4-ylcarbonyl)thiazol-2-yl]-2-[4-(2-hydroxy-2-methylpropyl)piperazin-1-yl]acetamide]
18 | 176 to 183 °C | COc1cccc(C(=O)Nc2nc(-c3ccco3)c(C(=O)C3CCC(=O)CC3)s2)c1 [Compound 356, N-[4-(2-Furyl)-5-(4-oxocyclohexylcarbonyl)thiazol-2-yl]-3-methoxybenzamide]
19 | 208 to 210 °C | O=C(Nc1nc(-c2ccco2)c(C(=O)C2CCOCC2)s1)c1ccc(F)c(F)c1 [Compound 398, 3,4-Difluoro-N-[4-(2-furyl)-5-(tetrahydropyran-4-ylcarbonyl)thiazol-2-yl]benzamide]

Row | melting point | SMILES
20 | 230 to 231 °C | CC(C)(O)c1cc2cc(C(=O)Nc3nc(-c4ccco4)c(C(=O)c4ccccn4)s3)ccc2o1 [Compound 155, N-[4-(2-Furyl)-5-(pyridin-2-ylcarbonyl)thiazol-2-yl]-2-(1-hydroxy-1-methylethyl)-1-benzofuran-5-carboxamide]
21 | 185 to 186 °C | O=C(Nc1nc(-c2ccco2)c(C(=O)C2CCOCC2)s1)c1ccnc(Cl)c1 [Compound 404, 2-Chloro-N-[4-(2-furyl)-5-(tetrahydropyran-4-ylcarbonyl)-thiazol-2-yl]pyridine-4-carboxamide]
22 | 105 to 107 °C | COC(C)(C)CN1CCN(CC(=O)Nc2nc(-c3ccco3)c(C(=O)C3CCOCC3)s2)CC1 [Compound 471, N-[4-(2-Furyl)-5-(tetrahydropyran-4-ylcarbonyl)thiazol-2-yl]-2-[4-(2-methoxy-2-methylpropyl)piperazin-1-yl]acetamide]
23 | 102 to 103 °C | COC[C@@H]1CCCN1CC(=O)Nc1nc(-c2ccco2)c(C(=O)C2CCOCC2)s1 [Compound 443, N-[4-(2-Furyl)-5-(tetrahydropyran-4-ylcarbonyl)thiazol-2-yl]-2-[(2S)-2-(methoxymethyl)pyrrolidin-1-yl]acetamide]
24 | 164 to 166 °C | O=C(Nc1nc(-c2ccco2)c(C(=O)C2CCOCC2)s1)C1CCOC1 (centres unmarked) [Compound 429, N-[4-(2-Furyl)-5-(tetrahydropyran-4-ylcarbonyl)thiazol-2-yl]tetrahydrofuran-3-carboxamide]
25 | 259 to 265 °C | O=C(Nc1nc(-c2ccco2)c(C(=O)C2CCOCC2)s1)c1cc(F)cc(F)c1 [Compound 399, 3,5-Difluoro-N-[4-(2-furyl)-5-(tetrahydropyran-4-ylcarbonyl)thiazol-2-yl]benzamide]
26 | 121 to 126 °C | CCOCC(=O)Nc1nc(-c2ccco2)c(C(=O)C2CCOCC2)s1 [Compound 437, 2-Ethoxy-N-[4-(2-furyl)-5-(tetrahydropyran-4-ylcarbonyl)-thiazol-2-yl]acetamide]
27 | 195 to 196 °C | Cn1c(-c2sc(NC(=O)c3ccccc3)nc2-c2ccco2)cc2ccccc21 [Compound 36, N-[4-(2-Furyl)-5-(1-methylindol-2-yl)thiazol-2-yl]benzamide]
28 | 280 to 281 °C | O=C(Nc1nc(-c2ccco2)c(C(=O)c2cccnn2)s1)c1ccncc1 [Compound 283, N-[4-(2-Furyl)-5-(pyridazine-3-ylcarbonyl)thiazol-2-yl]pyridine-4-carboxamide]
29 | 169 to 170 °C | COc1ccc(C(=O)Nc2nc(-c3ccco3)c(C(=O)c3ccccn3)s2)cc1OC [Compound 111, N-[4-(2-Furyl)-5-(pyridin-2-ylcarbonyl)thiazol-2-yl]-3,4-dimethoxybenzamide]
30 | 107 to 110 °C | COc1ccc(OC)c(C(=O)Nc2nc(-c3ccco3)c(C(=O)C3CCOCC3)s2)c1 [Compound 390, N-[4-(2-Furyl)-5-(tetrahydropyran-4-ylcarbonyl)thiazol-2-yl]-2,5-dimethoxybenzamide]
31 | 125 to 160 °C (dec.) | Nc1nc(-c2ccco2)c(C(=O)C2CCC2)s1 [Compound 329, 2-Amino-4-(2-furyl)thiazol-5-yl cyclobutyl ketone]
32 | 259 to 260 °C | O=C(Nc1nc(-c2ccco2)c(C(=O)c2cc[nH]c2)s1)c1ccncc1 [Compound 260, N-[4-(2-Furyl)-5-(pyrrol-3-ylcarbonyl)thiazol-2-yl]pyridine-4-carboxamide]
33 | 152 to 156 °C | COc1cccc(OC)c1C(=O)Nc1nc(-c2ccco2)c(C(=O)C2CCOCC2)s1 [Compound 391, N-[4-(2-Furyl)-5-(tetrahydropyran-4-ylcarbonyl)thiazol-2-yl]-2,6-dimethoxybenzamide]
34 | 123 to 124 °C | CC(C)(C)NC(=O)Nc1nc(-c2ccco2)c(C(=O)c2ccccn2)s1 [Compound 167, N-tert-Butyl-N′-[4-(2-furyl)-5-(pyridin-2-ylcarbonyl)thiazol-2-yl]urea]
35 | 280 to 282 °C | Cn1ccc(-c2sc(NC(=O)c3ccncc3)nc2-c2ccco2)cc1=O [Compound 37, N-[4-(2-Furyl)-5-(1-methyl-2-oxo-1,2-dihydropyridin-4-yl)thiazol-2-yl]pyridine-4-carboxamide]
36 | 185 to 189 °C | Cc1ccc(C(=O)c2sc(NC(=O)c3ccncc3)nc2-c2ccco2)o1 [Compound 250, N-[4-(2-Furyl)-5-(5-methylfuran-2-ylcarbonyl)thiazol-2-yl]pyridine-4-carboxamide]
37 | 179 to 182 °C | CC(C)C(=O)c1sc(NC(=O)c2ccncc2)nc1-c1ccco1 [Compound 300, N-[4-(2-Furyl)-5-isobutyrylthiazol-2-yl]pyridine-4-carboxamide]
38 | 211 to 212 °C | O=C(Nc1nc(-c2ccco2)c(C(=O)c2ccccn2)s1)c1ccc(Br)o1 [Compound 143, 5-Bromo-N-[4-(2-furyl)-5-(pyridin-2-ylcarbonyl)thiazol-2-yl]furan-2-carboxamide]
